According to ChEMBL document CHEMBL1201862, “PubChem BioAssay data set” (2004):
Values belong to the compound of their own block, whether it stands above or below them. Active and inactive are the calls of the source.

Assays:
[1] = target: Melanocortin receptor 4 (Homo sapiens, UniProt P32245); assay: inhibitors of MC4R cAMP signaling – cell-based, TR-FRET, biased antagonists, dose response (AID 602298); format: functional;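 further: antagonist potency against agonist-stimulated cAMP production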
[2] = cAMP pathway inhibition in counterscreen cell line – TR-FRET cAMP detection, counter-screen for MC4R biased antagonist project, dose response (AID 602305); format: functional, cell-based;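 further: U2OS cells stimulated with forskolin near its EC80 as the cAMP inducer; potency is for inhibition of forskolin-stimulated cAMP signaling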
[3] = target: T1, Aurora kinase A (Homo sapiens, UniProt O14965); format: functional;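 further: value from the Navigating the Kinome kinase panel profiling, panel entry STK6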
T1 sequence (O14965 whole entry): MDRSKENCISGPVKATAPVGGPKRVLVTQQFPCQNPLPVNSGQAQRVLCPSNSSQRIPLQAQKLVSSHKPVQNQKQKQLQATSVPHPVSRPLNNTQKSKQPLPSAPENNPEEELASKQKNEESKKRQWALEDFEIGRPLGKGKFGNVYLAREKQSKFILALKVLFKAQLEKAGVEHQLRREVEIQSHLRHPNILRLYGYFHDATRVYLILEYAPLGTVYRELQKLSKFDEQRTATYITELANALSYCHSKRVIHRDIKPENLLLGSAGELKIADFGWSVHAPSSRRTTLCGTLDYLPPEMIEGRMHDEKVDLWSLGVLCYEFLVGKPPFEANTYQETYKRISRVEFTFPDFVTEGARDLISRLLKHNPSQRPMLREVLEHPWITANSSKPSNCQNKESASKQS

[4] = target: Protein kinase C theta type (Homo sapiens, UniProt Q04759); assay: Navigating the Kinome. Panel member name: PRKCQ; format: functional
[5] = target: T2, Tyrosine-protein kinase receptor TYRO3 (Homo sapiens, UniProt Q06418); format: functional;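 further: TYRO3 value obtained as one member of a kinome-wide profiling panel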
T2 sequence (Q06418 whole entry): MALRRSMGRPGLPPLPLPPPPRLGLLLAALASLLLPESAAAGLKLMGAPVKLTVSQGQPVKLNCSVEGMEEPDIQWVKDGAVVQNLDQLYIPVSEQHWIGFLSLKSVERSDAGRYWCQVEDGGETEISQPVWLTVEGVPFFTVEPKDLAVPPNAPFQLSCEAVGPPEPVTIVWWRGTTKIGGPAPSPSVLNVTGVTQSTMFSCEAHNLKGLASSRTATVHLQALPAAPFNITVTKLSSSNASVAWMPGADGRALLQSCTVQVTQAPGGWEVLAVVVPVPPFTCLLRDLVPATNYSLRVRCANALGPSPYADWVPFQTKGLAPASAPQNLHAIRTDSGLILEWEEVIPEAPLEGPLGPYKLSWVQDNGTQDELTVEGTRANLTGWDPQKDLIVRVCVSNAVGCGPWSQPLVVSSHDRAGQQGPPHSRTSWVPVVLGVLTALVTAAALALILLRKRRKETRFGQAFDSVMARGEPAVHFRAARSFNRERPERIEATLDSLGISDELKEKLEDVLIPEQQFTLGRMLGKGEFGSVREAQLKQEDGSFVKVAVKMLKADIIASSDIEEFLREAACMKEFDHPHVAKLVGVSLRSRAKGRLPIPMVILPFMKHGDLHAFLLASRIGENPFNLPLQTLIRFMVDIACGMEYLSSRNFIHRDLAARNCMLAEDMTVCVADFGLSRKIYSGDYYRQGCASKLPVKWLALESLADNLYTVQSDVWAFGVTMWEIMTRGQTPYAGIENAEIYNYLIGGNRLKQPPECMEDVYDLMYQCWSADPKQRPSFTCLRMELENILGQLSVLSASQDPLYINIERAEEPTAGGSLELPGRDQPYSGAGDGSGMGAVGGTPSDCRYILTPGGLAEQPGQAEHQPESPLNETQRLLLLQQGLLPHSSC

[6] = target: Dual specificity tyrosine-phosphorylation-regulated kinase 1A (Homo sapiens, UniProt Q13627); format: functional;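 further: measured against DYRK1A as one member of a broad kinome profiling panel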
[7] = target: Dual specificity tyrosine-phosphorylation-regulated kinase 1B (Homo sapiens, UniProt Q9Y463); assay: Navigating the Kinome. Panel member name: DYRK1B; format: functional
[8] = target: cAMP-dependent protein kinase catalytic subunit alpha (Homo sapiens, UniProt P17612); format: functional
[9] = target: Dual specificity protein kinase CLK4 (Homo sapiens, UniProt Q9HAZ1); format: functional
[10] = target: Cyclin-dependent kinase 19 (Homo sapiens, UniProt Q9BWU1); assay: Navigating the Kinome. Panel member name: CDC2L6; format: functional
[11] = target: Macrophage colony-stimulating factor 1 receptor (Homo sapiens, UniProt P07333); format: functional;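 further: value comes from the Navigating the Kinome screening panel, CSF1R member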
[12] = target: Cyclin-dependent kinase 9 (Homo sapiens, UniProt P50750); format: functional;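 further: value from the CDK9 entry of a kinome-spanning kinase panel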
[13] = target: BDNF/NT-3 growth factors receptor (Homo sapiens, UniProt Q16620); format: functional;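 further: NTRK2 measured as one member of a broad kinome-wide kinase profiling panel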
[14] = target: Vascular endothelial growth factor receptor 2 (Homo sapiens, UniProt P35968); format: functional
[15] = target: Platelet-derived growth factor receptor beta (Homo sapiens, UniProt P09619); format: functional;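 further: value comes from a kinome panel, with PDGFRB tested as one panel member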
[16] = target: Potassium voltage-gated channel subfamily KQT member 2 (Rattus norvegicus, UniProt O88943); assay: blockers of KCNQ2 channel current – cell-based, automated electrophysiology, set II, rat KCNQ2, dose response (AID 588637); format: functional
[17] = target: Large T antigen (Simian virus 40, UniProt P03070); format: functional, Betapolyomavirus macacae;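 further: Confirmatory-stage PubChem screen for compounds that inhibit SV40 T antigen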
[18] = target: T3, Insulin-degrading enzyme (Homo sapiens, UniProt P14735); assay: Dose Response: Fluorescence polarization-based cell-based high throughput dose response assay for inhibitors of insulin-degrading enzyme (IDE). [Related pubchem assays: 434962 (Primary screen (IDE inhibitors in singlicate)), 449730 (Counterscreen (Cytotoxicity in triplicate)), 435028 (Confirmation (IDE inhibitors in triplicate)), 434984 (Summary …; format: functional
T3 sequence (P14735 whole entry): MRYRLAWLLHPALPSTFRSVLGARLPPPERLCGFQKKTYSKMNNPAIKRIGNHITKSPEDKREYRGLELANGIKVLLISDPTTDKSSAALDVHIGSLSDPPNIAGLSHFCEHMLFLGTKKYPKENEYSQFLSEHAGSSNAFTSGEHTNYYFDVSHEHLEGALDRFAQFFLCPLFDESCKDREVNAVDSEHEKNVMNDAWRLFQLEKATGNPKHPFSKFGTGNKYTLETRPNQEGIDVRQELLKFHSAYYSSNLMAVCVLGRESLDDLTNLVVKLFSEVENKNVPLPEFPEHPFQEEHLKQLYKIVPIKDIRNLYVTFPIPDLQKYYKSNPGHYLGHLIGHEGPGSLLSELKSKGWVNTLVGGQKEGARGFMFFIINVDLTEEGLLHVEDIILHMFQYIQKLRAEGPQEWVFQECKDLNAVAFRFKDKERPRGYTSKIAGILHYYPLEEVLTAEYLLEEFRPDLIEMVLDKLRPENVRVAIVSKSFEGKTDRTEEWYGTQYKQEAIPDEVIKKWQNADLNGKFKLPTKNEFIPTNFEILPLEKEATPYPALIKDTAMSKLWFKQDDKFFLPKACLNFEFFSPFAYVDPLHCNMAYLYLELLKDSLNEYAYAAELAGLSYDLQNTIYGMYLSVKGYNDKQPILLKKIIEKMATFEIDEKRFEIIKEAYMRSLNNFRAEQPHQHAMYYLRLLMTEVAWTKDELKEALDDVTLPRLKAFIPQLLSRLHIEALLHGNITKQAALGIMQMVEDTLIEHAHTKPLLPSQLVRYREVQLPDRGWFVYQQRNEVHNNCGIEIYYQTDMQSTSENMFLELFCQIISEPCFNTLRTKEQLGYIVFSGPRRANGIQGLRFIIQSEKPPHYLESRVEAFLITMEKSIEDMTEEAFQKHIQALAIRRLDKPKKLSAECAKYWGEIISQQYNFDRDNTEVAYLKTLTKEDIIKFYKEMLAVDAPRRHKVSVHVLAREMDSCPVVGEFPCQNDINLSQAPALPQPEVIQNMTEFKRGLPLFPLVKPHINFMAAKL

[19] = Counterscreen for IDE inhibitors: Luminescence-based cell-based high throughput dose response assay to identify compounds that are cytotoxic to HEK cells. [Related pubchem assays: 434962 (Primary screen (IDE inhibitors in singlicate)), 449730 (Counterscreen (Cytotoxicity in triplicate)), 435028 (Confirmation (IDE inhibitors in triplicate)) …; format: functional; conditions: HEK293
[20] = target: Glucose-6-phosphate 1-dehydrogenase (Homo sapiens, UniProt P11413); assay: inhibition of Homo sapiens G6PD, dose series – biochemical, fluorescence, selectivity assay for P. falciparum G6PD inhibitor project, dose response (AID 504792); format: functional
[21] = target: T4, Mitochondrial peptide methionine sulfoxide reductase (Bos taurus, UniProt P54149); assay: Absorbance-based biochemical high throughput dose response assay for activators of Methionine sulfoxide reductase A (MsrA).; format: functional
T4 sequence (P54149 whole entry): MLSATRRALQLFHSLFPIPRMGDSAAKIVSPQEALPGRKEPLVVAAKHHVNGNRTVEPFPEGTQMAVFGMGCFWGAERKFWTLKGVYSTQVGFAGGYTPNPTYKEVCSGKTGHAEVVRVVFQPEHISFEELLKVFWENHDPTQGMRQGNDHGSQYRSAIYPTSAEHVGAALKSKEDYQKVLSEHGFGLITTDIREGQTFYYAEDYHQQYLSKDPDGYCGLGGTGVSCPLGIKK

[22] = target: Leukocyte tyrosine kinase receptor (Homo sapiens, UniProt P29376); assay: Navigating the Kinome. Panel member name: LTK; format: functional
[23] = target: Activated CDC42 kinase 1 (Homo sapiens, UniProt Q07912); assay: Navigating the Kinome. Panel member name: ACK1; format: functional
[24] = target: Focal adhesion kinase 1 (Homo sapiens, UniProt Q05397); format: functional;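 further: measured as one member of a kinome panel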
[25] = target: Dual specificity mitogen-activated protein kinase kinase 2 (Homo sapiens, UniProt P36507); assay: Navigating the Kinome. Panel member name: MAP2K2; format: functional
[26] = target: T5, cAMP-dependent protein kinase catalytic subunit PRKX (Homo sapiens, UniProt P51817); format: functional
T5 sequence (P51817 whole entry): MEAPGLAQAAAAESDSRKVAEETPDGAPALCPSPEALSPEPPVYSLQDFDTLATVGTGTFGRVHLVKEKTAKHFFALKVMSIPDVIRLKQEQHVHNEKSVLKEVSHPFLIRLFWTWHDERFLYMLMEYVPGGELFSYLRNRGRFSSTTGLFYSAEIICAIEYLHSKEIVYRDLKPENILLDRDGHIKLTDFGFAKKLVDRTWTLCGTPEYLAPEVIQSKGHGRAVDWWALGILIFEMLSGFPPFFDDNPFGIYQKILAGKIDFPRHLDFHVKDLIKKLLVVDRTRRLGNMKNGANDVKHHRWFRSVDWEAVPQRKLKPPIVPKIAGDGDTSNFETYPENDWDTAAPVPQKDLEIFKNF

[27] = target: Dual specificity protein kinase CLK2 (Homo sapiens, UniProt P49760); format: functional
[28] = target: Casein kinase I isoform alpha (Homo sapiens, UniProt P48729); format: functional
[29] = target: Macrophage-stimulating protein receptor (Homo sapiens, UniProt Q04912); assay: Navigating the Kinome. Panel member name: MST1R; format: functional
[30] = target: Dual specificity mitogen-activated protein kinase kinase 1 (Homo sapiens, UniProt Q02750); assay: Navigating the Kinome. Panel member name: MAP2K1; format: functional
[31] = target: 5'-AMP-activated protein kinase catalytic subunit alpha-1 (Homo sapiens, UniProt Q13131); format: functional
[32] = target: Cyclin-dependent kinase 5 (Homo sapiens, UniProt Q00535); format: functional;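 further: CDK5 measured as one member of a kinase profiling panel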
[33] = target: Platelet-derived growth factor receptor alpha (Homo sapiens, UniProt P16234); assay: Navigating the Kinome. Panel member name: PDGFRA; format: functional

Melanocortin receptor 4, sequence (P32245 whole entry): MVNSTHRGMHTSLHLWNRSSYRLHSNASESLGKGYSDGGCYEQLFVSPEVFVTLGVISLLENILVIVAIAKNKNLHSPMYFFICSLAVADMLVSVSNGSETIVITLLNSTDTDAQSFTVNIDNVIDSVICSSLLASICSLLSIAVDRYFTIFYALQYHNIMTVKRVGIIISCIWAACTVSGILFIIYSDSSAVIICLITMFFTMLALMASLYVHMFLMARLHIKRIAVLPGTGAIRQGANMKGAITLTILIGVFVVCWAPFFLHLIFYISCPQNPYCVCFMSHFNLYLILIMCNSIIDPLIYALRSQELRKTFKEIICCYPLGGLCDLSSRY
BDNF/NT-3 growth factors receptor, sequence (Q16620 whole entry): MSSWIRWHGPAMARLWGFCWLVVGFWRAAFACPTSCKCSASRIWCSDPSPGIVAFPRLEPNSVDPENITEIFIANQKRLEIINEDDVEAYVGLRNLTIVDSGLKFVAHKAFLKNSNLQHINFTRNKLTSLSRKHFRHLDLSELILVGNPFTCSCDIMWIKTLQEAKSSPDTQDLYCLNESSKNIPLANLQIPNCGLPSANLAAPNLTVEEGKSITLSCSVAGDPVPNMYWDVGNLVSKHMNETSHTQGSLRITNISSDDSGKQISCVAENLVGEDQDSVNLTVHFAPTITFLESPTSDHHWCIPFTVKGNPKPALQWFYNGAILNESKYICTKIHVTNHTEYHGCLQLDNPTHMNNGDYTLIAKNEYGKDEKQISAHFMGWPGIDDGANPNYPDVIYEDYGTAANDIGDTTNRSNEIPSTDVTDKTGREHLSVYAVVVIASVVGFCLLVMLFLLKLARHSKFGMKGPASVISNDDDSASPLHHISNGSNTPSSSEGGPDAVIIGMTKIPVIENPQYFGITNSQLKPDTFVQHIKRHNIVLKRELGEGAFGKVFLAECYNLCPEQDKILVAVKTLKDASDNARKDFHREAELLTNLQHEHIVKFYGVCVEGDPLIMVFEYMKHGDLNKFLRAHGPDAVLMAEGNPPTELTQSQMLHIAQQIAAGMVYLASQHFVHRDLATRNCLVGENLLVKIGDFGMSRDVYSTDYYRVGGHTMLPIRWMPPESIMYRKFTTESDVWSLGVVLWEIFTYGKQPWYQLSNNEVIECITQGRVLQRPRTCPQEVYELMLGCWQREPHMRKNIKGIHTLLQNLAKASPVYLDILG
Vascular endothelial growth factor receptor 2, sequence (P35968 whole entry): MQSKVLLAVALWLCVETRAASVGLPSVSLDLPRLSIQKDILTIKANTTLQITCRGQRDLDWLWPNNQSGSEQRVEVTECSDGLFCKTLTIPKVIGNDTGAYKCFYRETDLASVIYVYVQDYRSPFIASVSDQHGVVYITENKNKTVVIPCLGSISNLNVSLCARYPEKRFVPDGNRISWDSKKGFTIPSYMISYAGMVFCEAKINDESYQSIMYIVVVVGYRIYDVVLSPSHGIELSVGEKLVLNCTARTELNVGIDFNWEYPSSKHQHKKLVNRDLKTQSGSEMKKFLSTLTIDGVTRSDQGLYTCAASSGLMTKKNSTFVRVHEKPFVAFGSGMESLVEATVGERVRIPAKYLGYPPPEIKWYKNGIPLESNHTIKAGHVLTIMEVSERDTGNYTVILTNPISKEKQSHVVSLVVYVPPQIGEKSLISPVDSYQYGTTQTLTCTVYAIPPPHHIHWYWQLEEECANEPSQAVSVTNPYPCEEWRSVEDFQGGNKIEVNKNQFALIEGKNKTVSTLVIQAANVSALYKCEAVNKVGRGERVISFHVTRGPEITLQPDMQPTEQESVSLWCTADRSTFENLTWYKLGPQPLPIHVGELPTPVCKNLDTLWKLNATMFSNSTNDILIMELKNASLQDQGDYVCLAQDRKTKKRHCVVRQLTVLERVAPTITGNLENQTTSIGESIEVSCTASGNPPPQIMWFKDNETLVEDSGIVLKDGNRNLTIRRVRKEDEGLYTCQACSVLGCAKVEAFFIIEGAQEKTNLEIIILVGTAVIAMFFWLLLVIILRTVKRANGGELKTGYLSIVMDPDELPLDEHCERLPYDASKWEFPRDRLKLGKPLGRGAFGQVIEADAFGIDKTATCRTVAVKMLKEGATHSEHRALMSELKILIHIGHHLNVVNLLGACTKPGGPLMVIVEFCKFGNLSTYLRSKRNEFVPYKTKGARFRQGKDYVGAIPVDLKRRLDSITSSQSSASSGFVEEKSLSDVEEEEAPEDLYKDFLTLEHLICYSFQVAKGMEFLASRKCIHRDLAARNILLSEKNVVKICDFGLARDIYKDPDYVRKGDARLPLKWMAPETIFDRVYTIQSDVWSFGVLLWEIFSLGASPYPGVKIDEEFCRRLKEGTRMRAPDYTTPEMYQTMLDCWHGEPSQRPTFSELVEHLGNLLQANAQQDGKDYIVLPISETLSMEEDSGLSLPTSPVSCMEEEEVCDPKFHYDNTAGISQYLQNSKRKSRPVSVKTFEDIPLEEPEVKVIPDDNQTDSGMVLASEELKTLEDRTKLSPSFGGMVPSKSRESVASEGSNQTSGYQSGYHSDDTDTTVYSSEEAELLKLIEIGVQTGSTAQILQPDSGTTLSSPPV
Dual specificity mitogen-activated protein kinase kinase 1, sequence (Q02750 whole entry): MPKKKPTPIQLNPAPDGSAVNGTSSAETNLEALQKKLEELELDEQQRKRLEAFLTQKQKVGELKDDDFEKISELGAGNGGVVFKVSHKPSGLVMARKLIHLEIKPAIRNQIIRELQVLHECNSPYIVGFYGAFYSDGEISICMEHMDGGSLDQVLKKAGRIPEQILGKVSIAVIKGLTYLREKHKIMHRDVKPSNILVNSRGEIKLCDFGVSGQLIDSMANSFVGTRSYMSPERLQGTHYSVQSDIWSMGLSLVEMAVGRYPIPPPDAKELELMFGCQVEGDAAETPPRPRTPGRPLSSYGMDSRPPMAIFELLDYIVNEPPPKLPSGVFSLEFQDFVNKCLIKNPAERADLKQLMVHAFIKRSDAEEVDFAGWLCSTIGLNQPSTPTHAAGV
Cyclin-dependent kinase 5, sequence (Q00535 whole entry): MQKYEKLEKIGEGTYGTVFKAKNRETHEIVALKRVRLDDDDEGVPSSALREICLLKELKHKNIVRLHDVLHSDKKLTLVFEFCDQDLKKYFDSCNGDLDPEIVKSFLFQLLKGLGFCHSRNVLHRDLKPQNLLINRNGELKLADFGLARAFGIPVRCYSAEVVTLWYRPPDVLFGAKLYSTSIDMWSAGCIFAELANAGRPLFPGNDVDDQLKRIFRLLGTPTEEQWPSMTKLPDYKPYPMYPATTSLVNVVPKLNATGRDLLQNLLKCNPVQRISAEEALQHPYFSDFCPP
Activated CDC42 kinase 1, sequence (Q07912 whole entry): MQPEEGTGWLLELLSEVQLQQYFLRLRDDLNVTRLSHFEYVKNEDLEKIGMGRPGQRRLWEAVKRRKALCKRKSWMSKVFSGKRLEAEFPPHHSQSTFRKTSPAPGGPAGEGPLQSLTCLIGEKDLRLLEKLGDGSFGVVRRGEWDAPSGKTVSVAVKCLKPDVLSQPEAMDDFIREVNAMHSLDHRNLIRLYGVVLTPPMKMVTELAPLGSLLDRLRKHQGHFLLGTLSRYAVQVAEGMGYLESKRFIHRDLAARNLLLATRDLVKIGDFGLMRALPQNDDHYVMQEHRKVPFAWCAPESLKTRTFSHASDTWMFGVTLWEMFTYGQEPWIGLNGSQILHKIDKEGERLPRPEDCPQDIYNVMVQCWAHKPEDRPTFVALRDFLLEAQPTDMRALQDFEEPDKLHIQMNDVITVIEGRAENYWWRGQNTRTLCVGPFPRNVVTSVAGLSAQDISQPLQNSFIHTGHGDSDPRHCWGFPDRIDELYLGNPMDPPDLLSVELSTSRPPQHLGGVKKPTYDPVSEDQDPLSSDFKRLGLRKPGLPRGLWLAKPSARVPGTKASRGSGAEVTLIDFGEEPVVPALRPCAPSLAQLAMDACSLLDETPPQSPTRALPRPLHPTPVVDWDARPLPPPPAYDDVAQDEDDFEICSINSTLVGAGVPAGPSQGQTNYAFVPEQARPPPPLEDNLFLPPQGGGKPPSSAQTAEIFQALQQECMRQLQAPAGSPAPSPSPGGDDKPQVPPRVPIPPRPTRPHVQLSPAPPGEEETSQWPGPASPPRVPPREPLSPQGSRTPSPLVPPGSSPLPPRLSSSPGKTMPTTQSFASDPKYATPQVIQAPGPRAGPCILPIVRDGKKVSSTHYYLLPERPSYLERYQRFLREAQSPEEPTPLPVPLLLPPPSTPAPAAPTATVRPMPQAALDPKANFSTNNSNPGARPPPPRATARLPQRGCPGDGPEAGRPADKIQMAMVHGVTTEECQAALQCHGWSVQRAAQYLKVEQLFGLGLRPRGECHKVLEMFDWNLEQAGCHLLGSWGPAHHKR
Cyclin-dependent kinase 19, sequence (Q9BWU1 whole entry): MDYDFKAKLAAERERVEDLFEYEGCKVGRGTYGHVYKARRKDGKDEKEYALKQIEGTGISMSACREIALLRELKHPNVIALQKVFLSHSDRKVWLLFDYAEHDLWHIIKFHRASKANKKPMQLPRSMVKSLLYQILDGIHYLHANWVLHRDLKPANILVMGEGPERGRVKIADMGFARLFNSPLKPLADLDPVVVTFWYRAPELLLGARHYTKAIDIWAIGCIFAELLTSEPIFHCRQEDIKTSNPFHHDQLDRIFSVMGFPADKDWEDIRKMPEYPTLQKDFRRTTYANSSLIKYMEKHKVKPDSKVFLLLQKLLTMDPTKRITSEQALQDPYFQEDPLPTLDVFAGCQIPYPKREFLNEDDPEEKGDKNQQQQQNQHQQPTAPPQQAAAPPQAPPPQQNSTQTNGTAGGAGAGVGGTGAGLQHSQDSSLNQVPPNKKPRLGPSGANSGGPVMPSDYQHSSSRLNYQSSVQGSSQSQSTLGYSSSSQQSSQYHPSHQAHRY

SMILES: COC(=O)CSc1nnc(-c2ccc(S(=O)(=O)NCc3ccccc3Cl)cc2)o1
IC50 [1]: > 64.6 µM (inactive)
IC50 [2]: > 64.6 µM (inactive)

SMILES: O=C(Oc1cccc(C(=S)N2CCOCC2)c1)c1ccc([N+](=O)[O-])cc1[N+](=O)[O-]
IC50 [1]: > 64.6 µM (inactive)
IC50 [2]: > 64.6 µM (inactive)

Ki [3]: > 63.1 µM (inactive)
Ki [4]: > 100 µM (inactive)
Ki [5]: 79.4 µM (active)
Ki [6]: > 79.4 µM (inactive)
Ki [7]: 100 µM (active)
Ki [8]: > 50.1 µM (inactive)
Ki [9]: 1.58 µM (active)
Ki [10]: > 100 µM (inactive)
Ki [11]: > 100 µM (inactive)
Ki [12]: > 63.1 µM (inactive)
Ki [13]: 25.1 µM (active)
Ki [14]: > 100 µM (inactive)
Ki [15]: > 79.4 µM (inactive)
SMILES: O=C1NCc2ccc(-c3ccccc3)cc21

IC50 [16]: 1.51 µM (active)
SMILES: COc1ccc(-c2cc(C(=O)N3CC(C)CC(C)C3)c3ccccc3n2)cc1OC (centres undefined)

SMILES: CS(=O)(=O)c1ccc(N)c(SSc2cc(S(C)(=O)=O)ccc2N)c1
IC50 [17]: 13 µM (active)
IC50 [18]: 7.08 µM (active)
IC50 [19]: > 55.7 µM (not active)
IC50 [20]: 23.9 µM (inactive)
EC50 [21]: > 104 µM (inactive)

Ki [22]: > 2.51 µM (inactive)
Ki [23]: > 3.98 µM (inactive)
Ki [24]: > 6.31 µM (inactive)
Ki [25]: > 3.98 µM (inactive)
Ki [26]: > 3.16 µM (inactive)
Ki [27]: 0.158 µM (active)
Ki [28]: > 3.98 µM (inactive)
Ki [29]: 0.2 µM (active)
Ki [6]: > 2 µM (inactive)
Ki [8]: 0.631 µM (active)
Ki [30]: > 3.16 µM (inactive)
Ki [31]: > 3.16 µM (inactive)
Ki [32]: > 3.16 µM (inactive)
Ki [13]: > 3.98 µM (inactive)
Ki [14]: 2 µM (active)
Ki [33]: > 2.51 µM (inactive)
SMILES: CN(C)CC1CCn2cc(c3ccccc32)C2=C(C(=O)NC2=O)c2cn(c3ccccc23)CCO1 (centres undefined)
